Patent US20250230159A1, “FUSED HETEROCYCLIC COMPOUNDS AS MODULATORS OF RAS SIGNALLING” (Shenzhen Ionova Life Science Co., Ltd., priority 2022, published 2025)
Like-named read-outs stand apart in the source and are kept apart here.

What was measured:
[1] = molecular target: KRAS-G12C/SOS1 interaction (Homo sapiens (Human), UniProt Q07889); assay: Protein-Protein Interaction (PPI) assay, SOS1-KRAS binding assay kit (HTRF)
pERK in Hela cells = assay: Phospho-ERK (p-ERK) assay in Hela cells; assay type: cell-based; details: Homo sapiens, β-actin normalized
Method: This Example illustrates that exemplary compounds of the present invention prevent KRas-mediated GTP nucleotide exchange mediated by SOS1 to inhibit KRas activity, thereby inhibiting the generation of the downstream effector pERK.
Hela cells (23,000/w) were seeded in a black clear flat bottom 96-well cell culture plate (Corning, #3904) and incubated at 37° C. overnight. At day 2, cells were dosed with compounds of Formula (I) with a 10 μM starting concentration and serially diluted 3× for a total of 9 concentrations. The cells were incubated for 1 hour with the compounds solubilized in DMSO at 37° C. Cells were immediately fixed by adding 100 μL of 8% formaldehyde to all wells in a fume hood and the plates were incubated for 1 hr at room temperature. The formaldehyde was discarded from the plates and washed 5 times and each time for 5 min with 200 μL of Triton Washing Solution (0.1% Triton in PBS) each time to permeabilize the cells. Cells were then blocked with 150 μL of Odyssey blocking buffer (LI-COR Biosciences #927-50010) at room temperature on a shaker. The blocking buffer was discarded and 50 μL of primary antibodies pERK (cell signaling Technology #4370; Rabbit, 1:500) and β-actin (AF5001; Mouse, 1:2000) diluted in Odyssey blocking buffer was added. The plates were incubated overnight at 4° C. on a shaker.
On day 3, the primary antibody solution was removed. Each plate was washed 5× times with 200 μL of 1×PBST (PBS+0.1% Tween 20) and incubated with 50 μL of secondary antibodies: Anti-Rabbit (LI-COR Biosciences #926-32211) and Anti-Mouse (LI-COR Biosciences #68070) at 1:1000 dilution in Odyssey blocking buffer at room temperature on a shaker for 1 hour (protected from light). The secondary antibody solution as removed and each plate was washed with PBST 5× times. Any liquid remaining was discarded and the plate was imaged using the Licor Odyssey machine according to the manufacturer's instruction, using a set focus length at 3.5 mm and both 800 nm and 700 nm filters. The 3-actin normalized scan values for each well were divided by the average of vehicle wells to get the % of p-ERK inhibition. The IC50 values were then calculated with the Graph pad Prism software. In general, p-ERK IC50 data are in line with the PPI IC50 data.

Sequence of KRAS-G12C/SOS1 interaction (Q07889 whole entry, stated change not applied): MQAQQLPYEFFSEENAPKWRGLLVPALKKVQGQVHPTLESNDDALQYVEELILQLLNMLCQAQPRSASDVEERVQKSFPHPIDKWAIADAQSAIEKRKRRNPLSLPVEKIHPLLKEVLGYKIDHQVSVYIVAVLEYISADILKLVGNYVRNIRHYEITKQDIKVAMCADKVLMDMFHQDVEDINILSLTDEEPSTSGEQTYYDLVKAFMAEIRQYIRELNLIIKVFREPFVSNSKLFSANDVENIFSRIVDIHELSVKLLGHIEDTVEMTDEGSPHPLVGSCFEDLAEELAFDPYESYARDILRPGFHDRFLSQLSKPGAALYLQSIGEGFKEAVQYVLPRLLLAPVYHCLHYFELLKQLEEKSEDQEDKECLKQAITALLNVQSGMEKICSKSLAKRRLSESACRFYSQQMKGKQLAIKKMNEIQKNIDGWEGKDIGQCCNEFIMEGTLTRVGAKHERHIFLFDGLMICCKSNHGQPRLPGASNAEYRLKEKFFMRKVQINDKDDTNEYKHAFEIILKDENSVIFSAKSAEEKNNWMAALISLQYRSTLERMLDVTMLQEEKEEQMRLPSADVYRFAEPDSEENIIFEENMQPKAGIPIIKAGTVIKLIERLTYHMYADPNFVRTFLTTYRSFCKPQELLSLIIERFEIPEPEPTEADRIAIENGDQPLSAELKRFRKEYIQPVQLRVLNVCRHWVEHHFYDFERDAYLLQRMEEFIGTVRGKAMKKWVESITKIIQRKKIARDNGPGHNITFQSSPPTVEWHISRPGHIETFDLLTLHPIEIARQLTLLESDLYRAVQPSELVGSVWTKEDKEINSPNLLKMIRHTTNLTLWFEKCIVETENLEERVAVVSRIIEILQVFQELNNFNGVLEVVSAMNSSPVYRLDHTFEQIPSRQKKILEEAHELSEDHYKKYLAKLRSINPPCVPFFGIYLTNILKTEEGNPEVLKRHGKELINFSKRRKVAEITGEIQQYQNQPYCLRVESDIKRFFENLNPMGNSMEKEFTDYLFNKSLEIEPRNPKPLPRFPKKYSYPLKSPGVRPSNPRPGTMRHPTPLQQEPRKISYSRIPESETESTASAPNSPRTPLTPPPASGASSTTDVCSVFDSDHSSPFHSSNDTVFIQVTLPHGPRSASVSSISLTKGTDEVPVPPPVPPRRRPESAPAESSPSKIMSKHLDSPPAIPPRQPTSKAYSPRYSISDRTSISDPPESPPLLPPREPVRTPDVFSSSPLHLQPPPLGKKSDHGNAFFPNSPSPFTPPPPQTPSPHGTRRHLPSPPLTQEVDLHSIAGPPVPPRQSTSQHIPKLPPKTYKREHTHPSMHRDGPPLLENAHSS

Row | IC50 ([1]; read-out: PPI Assay IC50) | IC50 [1] | SMILES | IC50 (pERK in Hela cells; Table 1, 1 hour with compound) | IC50 (pERK in Hela cells; Table 2, 1 hour with compound)
1 | < 100 nM | – | CC(=O)N1CCC(F)(c2cc3c(N[C@H](C)c4cccc(C(F)F)c4F)ncnc3n3nnnc23)CC1 [Example 117] | < 100 nM | –
2 | < 100 nM | – | COC1(c2cc3c(N[C@H](C)c4cccc(C(F)F)c4F)nc(C)nc3n3cnnc23)CCN(C(C)=O)CC1 [Example 118, (R)-1-(4-(4-((1-(3-(difluoromethyl)-2-fluorophenyl)ethyl)amino)-2-methyl-[1,2,4]triazolo[4′,3′:1,6]pyrido[2,3-d]pyrimidin-6-yl)-4-methoxypiperidin-1-yl)ethan-1-one] | < 100 nM | –
3 | < 100 nM | – | COC1(c2cc3c(N[C@H](C)c4cccc(C(F)F)c4F)ncnc3n3cnnc23)CCN(C(C)=O)CC1 [Example 119] | < 100 nM | –
4 | < 100 nM | – | COC1(c2cc3c(N[C@H](C)c4cccc(C(F)F)c4F)nc(C)nc3n3cnnc23)CCN(C(C)=O)C1 (some centres unmarked) [Example 120] | < 100 nM | –
5 | < 100 nM | – | COC1(c2cc3c(N[C@H](C)c4cccc(C(F)F)c4F)ncnc3n3cnnc23)CCS(=O)(=O)CC1 [Example 121] | < 100 nM | –
6 | < 100 nM | – | COC1(c2cc3c(N[C@H](C)c4cc(N)cc(C(F)(F)F)c4)ncnc3n3cnnc23)CCN(C(C)=O)CC1 [Example 122] | < 100 nM | –
7 | < 100 nM | – | COC1(c2cc3c(N[C@H](C)c4cc(N)cc(C(F)(F)F)c4)ncnc3n3cnnc23)CCOCC1 [Example 123] | < 100 nM | –
8 | < 100 nM | – | COC1(c2cc3c(N[C@H](C)c4cccc(C(F)F)c4F)nc(C)nc3n3c(C)nnc23)CCN(C(C)=O)CC1 [Example 124] | < 100 nM | –
9 | < 100 nM | – | COC1(c2cc3c(N[C@H](C)c4cccc(C(F)F)c4F)ncnc3n3nnnc23)CCN(C(C)=O)CC1 [Example 125] | < 100 nM | –
10 | < 100 nM | – | CC(=O)N1CCC(C)(c2cc3c(N[C@H](C)c4cccc(C(F)F)c4F)nc(C)nc3n3cnnc23)CC1 [Example 127, (R)-1-(4-(4-((1-(3-(difluoromethyl)-2-fluorophenyl)ethyl)amino)-2-methyl-[1,2,4]triazolo[4′,3′:1,6]pyrido[2,3-d]pyrimidin-6-yl)-4-methylpiperidin-1-yl)ethan-1-one] | < 100 nM | –
11 | < 100 nM | – | C[C@@H](Nc1ncnc2c1cc(C1(C)CCS(=O)(=O)CC1)c1nncn12)c1cccc(C(F)F)c1F [Example 129] | < 100 nM | –
12 | < 100 nM | – | C[C@@H](Nc1ncnc2c1cc(C1(C)CCOCC1)c1nncn12)c1cc(N)cc(C(F)(F)F)c1 [Example 130] | > 100 nM | –
13 | < 100 nM | – | CC(=O)N1CCC(C)(c2cc3c(N[C@H](C)c4cccc(C(F)F)c4F)nc(C)nc3n3nnnc23)CC1 [Example 131] | < 100 nM | –
14 | < 100 nM | – | CC(=O)N1CCC(C)(c2cc3c(N[C@H](C)c4cccc(C(F)F)c4F)ncnc3n3nnnc23)CC1 [Example 132] | < 100 nM | –
15 | < 100 nM | – | CC(=O)N1CCC(O)(c2cc3c(N[C@H](C)c4cccc(C(F)F)c4F)ncnc3n3c(C(F)(F)F)nnc23)CC1 [Example 135, (R)-1-(4-(4-((1-(3-(difluoromethyl)-2-fluorophenyl)ethyl)amino)-9-(trifluoromethyl)-[1,2,4]triazolo[4′,3′:1,6]pyrido[2,3-d]pyrimidin-6-yl)-4-hydroxypiperidin-1-yl)ethan-1-one] | > 100 nM | –
16 | < 100 nM | – | CC(=O)N1CCC(c2cc3c(N[C@H](C)c4cccc(C(F)F)c4F)ncnc3n3cnnc23)CC1 [Example 136, (R)-1-(4-(4-((1-(3-(difluoromethyl)-2-fluorophenyl)ethyl)amino)-[1,2,4]triazolo[4′,3′:1,6]pyrido[2,3-d]pyrimidin-6-yl)piperidin-1-yl)ethan-1-one] | > 100 nM | –
17 | < 100 nM | – | CC(=O)N1CCC(c2cc3c(N[C@H](C)c4cccc(C(F)F)c4F)nc(C)nc3n3cnnc23)C1 (some centres unmarked) [Example 137] | > 100 nM | –

Row | IC50 ([1]; read-out: PPI Assay IC50) | IC50 [1] | SMILES | IC50 (pERK in Hela cells; Table 1, 1 hour with compound) | IC50 (pERK in Hela cells; Table 2, 1 hour with compound)
18 | < 100 nM | – | CC(=O)N1CCC(c2cc3c(N[C@H](C)c4cccc(C(F)F)c4F)nc(C)nc3n3nnnc23)CC1 [Example 142] | > 100 nM | –
19 | < 100 nM | – | CC(=O)N1CCC(c2cc3c(N[C@H](C)c4cccc(C(F)F)c4F)ncnc3n3nnnc23)CC1 [Example 145] | < 100 nM | –
20 | < 100 nM | – | C[C@@H](Nc1ncnc2c1cc(C1CCN(S(C)(=O)=O)CC1)c1nnnn12)c1cccc(C(F)F)c1F [Example 146] | < 100 nM | –
21 | < 100 nM | – | COCC(=O)N1CCC(c2cc3c(N[C@H](C)c4cc(N)cc(C(F)(F)F)c4)nc(C)nc3n3nnnc23)CC1 [Example 147] | > 100 nM | –
22 | < 100 nM | – | COCC(=O)N1CCC(c2cc3c(N[C@H](C)c4cccc(C(F)F)c4F)ncnc3n3nnnc23)CC1 [Example 148] | > 100 nM | –
23 | – | > 100 nM | Cc1nc(N[C@H](C)c2cccc(C(F)F)c2F)c2cc(C3=CC[S+]([O-])CC3)c3nncn3c2n1 (stereo partly drawn) [Example 149, 4-(4-(((R)-1-(3-(difluoromethyl)-2-fluorophenyl)ethyl)amino)-2-methyl-[1,2,4]triazolo[4′,3′:1,6]pyrido[2,3-d]pyrimidin-6-yl)-3,6-dihydro-2H-thiopyran 1-oxide] | – | > 100 nM
24 | < 100 nM | – | Cc1nc(N[C@H](C)c2cccc(C(F)F)c2F)c2cc(C3CC[S+]([O-])CC3)c3nncn3c2n1 (some centres unmarked) [Example 150] | > 100 nM | –
25 | < 100 nM | – | Cc1nc(N[C@H](C)c2cccc(C(F)F)c2F)c2cc(C3=CCS(=O)(=O)CC3)c3nncn3c2n1 [Example 151, (R)-4-(4-((1-(3-(difluoromethyl)-2-fluorophenyl)ethyl)amino)-2-methyl-[1,2,4]triazolo[4′,3′:1,6]pyrido[2,3-d]pyrimidin-6-yl)-3,6-dihydro-2H-thiopyran 1,1-dioxide] | > 100 nM | –
26 | < 100 nM | – | Cc1nc(N[C@H](C)c2cccc(C(F)F)c2F)c2cc(C3CCS(=O)(=O)CC3)c3nncn3c2n1 [Example 152] | > 100 nM | –
27 | < 100 nM | – | C[C@@H](Nc1ncnc2c1cc(N1CCOCC1)c1ncnn12)c1cc(N)cc(C(F)(F)F)c1 [Example 153, (R)—N-(1-(3-amino-5-(trifluoromethyl)phenyl)ethyl)-4-morpholino-[1,2,4]triazolo[1′,5′:1,6]pyrido[2,3-d]pyrimidin-6-amine] | > 100 nM | –
28 | < 100 nM | – | Cc1nc2c(N3CCOCC3)cc3c(N[C@H](C)c4cccc(C(F)F)c4F)ncnc3n2n1 [Example 154] | < 100 nM | –
29 | < 100 nM | – | Cc1nc2c(N3CCOCC3=O)cc3c(N[C@H](C)c4cccc(C(F)F)c4F)ncnc3n2n1 [Example 155] | < 100 nM | –
30 | < 100 nM | – | Cc1nc2c(N3CCOC4(CC4)C3=O)cc3c(N[C@H](C)c4cccc(C(F)F)c4F)ncnc3n2n1 [Example 156] | < 100 nM | –
31 | < 100 nM | – | Cc1nc2c(N3CC4(CC4)OCC3=O)cc3c(N[C@H](C)c4cccc(C(F)F)c4F)ncnc3n2n1 [Example 157] | < 100 nM | –
32 | < 100 nM | – | Cc1nc2c(N3CCOCCC3=O)cc3c(N[C@H](C)c4cccc(C(F)F)c4F)ncnc3n2n1 [Example 158] | < 100 nM | –
33 | < 100 nM | – | C[C@@H](Nc1ncnc2c1cc(N1CCOC[C@@H]1C)c1nncn12)c1cc(N)cc(C(F)(F)F)c1 [Example 159] | > 100 nM | –
34 | < 100 nM | – | C[C@@H](Nc1ncnc2c1cc(N1CCOCC1=O)c1nncn12)c1cccc(C(F)F)c1F [Example 162] | < 100 nM | –
